What was measured:
[1] = in vivo; cited from earlier work
[2] = Change in astaxanthin concentration in human blood on long-term ingestion; type: in vivo; conditions: 12 mg/day astaxanthin in free form (two capsules of Haematococcus alga extract) for 42 days
Experimental: Next, a test on humans was performed to monitor how an astaxanthin concentration in blood (in blood plasma) changed when astaxanthin was ingested for a long period. A study was performed as follows:
Ten healthy Japanese males and females aged 20 years or older and younger than 50 years
The subjects ingested two capsules per day (equivalent to 12 mg/day astaxanthin in free form) together with water 30 minutes after breakfast for 42 days, with one capsule containing 60 mg of Haematococcus alga extract (equivalent to 6 mg of astaxanthin in free form) and 270 mg of edible oil and fat.
Blood collection was performed 1, 6, 13, 20, 27, 34, and 42 days after the first ingestion of the capsules to obtain blood plasma. The blood astaxanthin concentration was measured by the above-mentioned analytical method (HPLC).

[3] = test system: Clostridia; assay: Intestinal bacterial flora in cecum contents, 16S rRNA sequencing: Clostridia; type: in vivo, Wistar rats; conditions: diet containing 0.02% astaxanthin for four weeks, control group 58.2%
Excerpt: (§1) Six-week-old Wistar rats (rodents) were used to compare the intestinal bacterial flora of a group fed with a diet containing 0.02% astaxanthin (an Asx group) and the intestinal bacterial flora of a group fed with a normal diet (a control group).
(§2) Saline or corticotropin-releasing hormone (CRH) was intravenously administered to the rats after feeding each group with each corresponding diet for four weeks.
(§3) Three hours after administration, the rats were sacrificed and the intestinal bacterial floras in the cecum contents of each group were analyzed and compared. The result is shown in the graph of FIG. 1.
(§4) The analysis method included extracting DNA in the cecum contents, amplifying the V3-V4 region in a 16SrRNA gene, and performing sequencing.

[4] = Body weight of a rodent; type: in vivo; conditions: diet containing 0.02% astaxanthin vs normal diet; 24-day-old Wistar rats; PND72,76
Excerpt: Twenty four-day-old Wistar rats (rodents) were used to compare the body weights of a group fed with a diet containing 0.02% astaxanthin (an Asx group) and the body weights of a group fed with a normal diet (a control group).

[5] = test system: intestinal peristaltic movement induced by CRH; assay: Intestinal peristaltic movement induced by CRH administration; type: in vivo, Wistar rats; conditions: diet containing 0.02% astaxanthin for four weeks; CRH intravenously
Excerpt: as §1, §2
Furthermore, enhancement of intestinal peristaltic movement induced by administration of CRH was reduced in the Asx group.

[6] = test system: Lactobacillus; assay: Intestinal bacterial flora in cecum contents, 16S rRNA sequencing: Lactobacillus; type: in vivo, Wistar rats; conditions: diet containing 0.02% astaxanthin for four weeks, control group 10.9%
Excerpt: as §1, §2, §3, §4

[7] = test system: bacteria of the genus Akkermansia (Akkermansia muciniphila); assay: Intestinal bacterial flora in cecum contents, 16S rRNA sequencing: Akkermansia; type: in vivo; conditions: diet containing 0.02% astaxanthin for four weeks vs normal diet, 6-week-old Wistar rats
Excerpt: Thus, as detailed below, 6-week-old Wistar rats (rodents) were used to compare the intestinal bacterial floras of a group fed with an astaxanthin-containing diet for four weeks and a group fed with a normal diet for four weeks. […] Six-week-old Wistar rats (rodents) were used to compare the intestinal bacterial flora of a group fed with a diet containing 0.02% astaxanthin (an Asx group) and the intestinal bacterial flora of a group fed with a normal diet (a control group). Saline or corticotropin-releasing hormone (CRH) was intravenously administered to the rats after feeding each group with each corresponding diet for four weeks. Three hours after administration, the rats were sacrificed and the intestinal bacterial floras in the cecum contents of each group were analyzed and compared. […] The analysis method included extracting DNA in the cecum contents, amplifying the V3-V4 region in a 16SrRNA gene, and performing sequencing.

[8] = Astaxanthin concentration in human blood (HPLC); type: in vivo; conditions: 1 to 60 mg of astaxanthin per day
Experimental: Next, an astaxanthin concentration in human blood was investigated.
In this context, a blood astaxanthin concentration means an astaxanthin concentration in blood serum or blood plasma.
A blood astaxanthin concentration was measured by HPLC.
Five hundred microliters of 50 μg/ml butylhydroxytoluene in ethanol, 100 μl of 100 ng/ml internal standard (ethyl 8′-apo-beta-caroten-8′-oate, Carote Nature, 1010) in acetone, and 500 μl of distilled water were added to 100 μl of the obtained blood serum or blood plasma sample, and the mixture was stirred vigorously for 15 seconds by a vortex mixer.
Furthermore, 5 ml of hexane was added to the blood serum or blood plasma, and subsequently the mixture was stirred vigorously for 15 seconds by the vortex mixer three times and centrifuged at 3500 rpm for 10 minutes.
Four milliliters of the supernatant after centrifugation was collected and filtrated through a membrane filter with a mesh size of 0.45 μm. […]
In parallel, a standard solution was prepared by adding 1 ml of 10 μg/ml internal standard (ethyl 8′-apo-beta-caroten-8′-oate) in acetone to 100 ml of 100 ng/ml astaxanthin (astaxanthin, ALEXIS BIOCHEMICALS, 460-031-M250) in acetone, and was also subjected to reverse-phase HPLC. The blood astaxanthin concentration was calculated based on the peak area ratio of the above-mentioned two solutions obtained by HPLC. […]

[9] = test system: Akkermansia muciniphila; conditions: articles reported so far; mice; cited from earlier work

Structure (SMILES)	absorption percentage in the intestine [1]	astaxanthin concentration in human blood plasma at plateau [2]	time after beginning of ingestion at which blood plasma concentration started to plateau [2]	proportion of Clostridia in the intestinal bacterial flora of the Asx group [3] [%]	increase in body weight [4]	enhancement of intestinal peristaltic movement induced by administration of CRH [5]	proportion of Lactobacillus in the intestinal bacterial flora of the Asx group [6] [%]	number of bacteria of the genus Akkermansia in the Asx group relative to the control group [7]	blood astaxanthin concentration (serum or plasma), range [8]	effect on Akkermansia muciniphila population [9]
CC1=C(/C=C/C(C)=C/C=C/C(C)=C/C=C/C=C(C)/C=C/C=C(C)/C=C/C2=C(C)C(=O)C(O)CC2(C)C)C(C)(C)CC(O)C1=O (stereo not drawn) [astaxanthin, 3,3′-dihydroxy-β,β-carotene-4,4′-dione]	about 5%	around 200 ng/ml	about 6 days	47.6	clearly less	reduced	5.9	about 11.7 times	no more than 600 ng/ml	
COc1cc(CNC(=O)CCCC/C=C/C(C)C)ccc1O [Capsaicin]										effect of increasing Akkermansia muciniphila

— patent publication US20210052516A1, “METHOD FOR INCREASING AKKERMANSIA IN INTESTINAL BACTERIAL FLORA BY INGESTING ASTAXANTHIN” (Fuji Chemical Industries Co., Ltd., priority 2018, published 2021)
